Test results from patent US20200207734A1, “HETEROCYCLIC COMPOUND AND USE THEREOF” (Takeda Pharmaceutical Company Limited, priority 2017, published 2020).

Key:
[1] = target: T1, human orexin type 2 receptor (Homo sapiens, UniProt O43614); experiment: Measurement of orexin type 2 receptor agonist activity (calcium fluorescence, CHO cells expressing hOX2R); format: cell-based; details: test compound 3 μM; CHO cells expressing human OX2 receptor; DMSO = 0%, orexin A (human) = 100%
T1 construct: human orexin type 2 receptor cDNA was inserted into pcDNA3.1(+) plasmid vector (Invitrogen); expressed in transfected cells
T1 sequence (O43614 1-444): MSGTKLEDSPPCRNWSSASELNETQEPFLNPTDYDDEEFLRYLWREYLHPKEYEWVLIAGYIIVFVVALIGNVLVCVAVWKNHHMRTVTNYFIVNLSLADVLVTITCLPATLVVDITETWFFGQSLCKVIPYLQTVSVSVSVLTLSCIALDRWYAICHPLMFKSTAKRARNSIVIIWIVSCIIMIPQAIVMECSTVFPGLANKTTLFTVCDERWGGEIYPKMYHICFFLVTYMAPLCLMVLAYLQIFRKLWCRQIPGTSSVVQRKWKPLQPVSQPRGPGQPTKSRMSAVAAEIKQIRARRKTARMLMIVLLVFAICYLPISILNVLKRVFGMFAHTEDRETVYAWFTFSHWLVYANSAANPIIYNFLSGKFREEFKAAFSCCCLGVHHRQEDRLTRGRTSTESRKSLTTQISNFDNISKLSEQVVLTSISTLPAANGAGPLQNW
Method in brief: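 CHO-dhfr cells stably expressing hOX2R, loaded with Fluo-4 AM in HBSS/20 mM HEPES/0.1% BSA with probenecid, then given test compound. Calcium fluorescence was read for about 2 min 40 sec. Activity (%) was scaled between DMSO (0%) and 10 nM final human orexin A (100%).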

cynomolgus monkeys = experiment: Evaluation of wake-promoting effects in cynomolgus monkeys (EEG/EMG/EOG); format: in vivo; details: Macaca fascicularis, sc, 4 h; 1 mg/kg, s.c., cynomolgus monkeys, administered at ZT12; read-out: Wakefulness time (% of vehicle treatment) (Mean, n = 1-2)
Description: The wake-promoting effects were evaluated by measuring the electroencephalogram (EEG), electromyogram (EMG) and electrooculogram (EOG) in cynomolgus monkeys. Under isoflurane anesthesia (1-5%, Pfizer Japan Inc., Tokyo, Japan), male cynomolgus monkeys (3-5 years old, Hamri Co., Ltd., Ibaraki, Japan) were surgically implanted with radio-telemetry transmitters (TL10M3-D70-EEE, Data Sciences International Inc., MN, USA). EEG leads were stereotaxically positioned at the parietal area and secured to the cranium with stainless-steel screws in contact with the dura. […] Bilateral EMG leads were implanted into the back cervical muscles. After the surgery, each monkey was given penicillin (100,000 units/head, i.m., Meiji Seika Pharma Co., Ltd., Tokyo, Japan), buprenorphine (0.02 mg/kg, i.m., Otsuka Pharmaceutical Co., Ltd., Tokyo, Japan) and prednisolone (1 mg/kg, s.c., Kyoritsu Seiyaku Co., Ltd., Tokyo, Japan) daily for one week. After at least a 1-month recovery period in home cages, the monkeys were habituated to the recording chamber (an acrylic cage 60W×55D×75H (cm)) located in a soundproof, electrically shielded room. After we confirmed that monkeys slept sufficiently in the experimental room, cortical EEG, EMG and EOG signals were recorded using Dataquest ART software (Data Sciences International Inc., MN, USA). The signals were semi automatically scored in 20 sec epochs by a sleep scoring system (SleepSign, Kissei Comtec Co., Ltd., Nagano, Japan). This preliminary scoring was visually inspected and corrected if necessary. Test compound (10 mg/kg, Table 4-1) suspended in 0.5% methylcellulose aqueous solution, or vehicle (i.e., 0.5% methylcellulose aqueous solution) was administered orally (p.o.) to monkeys at zeitgeber time 12 (ZT12) in a volume of 5 mL/kg body weight in a cross-over design. EEG, EMG and EOG recordings were performed for 4 h after the compound administration/treatments. The time spent in wakefulness for 4 h after administration (% of vehicle treatment) was calculated by using SleepSign. Test compound (1 mg/kg, Table 4-2) dissolved in a mixed solution comprising 5% DMSO, 5% Cremophor EL, 20% PEG400 and 70% soluplus (1% (w/v)), or vehicle (i.e., a mixed solution comprising 5% DMSO, 5% Cremophor EL, 20% PEG400 and 70% soluplus (1% (w/v))) was administered subcutaneously (s.c.) to monkeys at ZT12 in a volume of 0.5 mL/kg body weight in a pre-post design. EEG, EMG and EOG recordings were performed for 4 h after the compound administration/treatments. The time spent in wakefulness for 4 h after administration (% of vehicle treatment) was calculated by using SleepSign.

SMILES	OX2R agonist activity (3 μM, %) [1] [%]	response vs control in vivo at 1 mg/kg (cynomolgus monkeys) [%]
CCS(=O)(=O)N[C@H]1CCN(C(=O)N2CCC2)[C@H]1Cc1cccc(-c2cc(F)cc(F)c2)c1 [Example 362, N-((2S,3S)-1-(azetidin-1-ylcarbonyl)-2-((3′,5′-difluorobiphenyl-3-yl)methyl)pyrrolidin-3-yl)ethanesulfonamide]	103	271
CCS(=O)(=O)N[C@H]1CCN(C(=O)N2CCC2)[C@H]1Cc1cccc(-c2ccccc2)c1 [Example 364, N-((2S,3S)-1-(azetidin-1-ylcarbonyl)-2-(biphenyl-3-ylmethyl)pyrrolidin-3-yl)ethanesulfonamide]	104	375
CCS(=O)(=O)N[C@H]1CCN(C(=O)N2CCC2)[C@H]1Cc1cccc(-c2cccc(F)c2)c1F [Example 372, N-((2S,3S)-1-(azetidin-1-ylcarbonyl)-2-((2,3′-difluorobiphenyl-3-yl)methyl)pyrrolidin-3-yl)ethanesulfonamide]	98	328
CN(C)C(=O)N1CC[C@H](NS(=O)(=O)N(C)C)[C@@H]1Cc1cccc(-c2cccc(F)c2)c1F [Example 377, (2S,3S)-2-((2,3′-difluorobiphenyl-3-yl)methyl)-3-((dimethylsulfamoyl)amino)-N,N-dimethylpyrrolidine-1-carboxamide]	103	343
CCS(=O)(=O)N[C@H]1CCN(C(=O)N(C)OC)[C@H]1Cc1cccc(-c2ccccc2)c1 [Example 407, (2S,3S)-2-(biphenyl-3-ylmethyl)-3-((ethylsulfonyl)amino)-N-methoxy-N-methylpyrrolidine-1-carboxamide]	107	391
CCS(=O)(=O)N[C@H]1CCN(C(=O)N2CCC2)[C@H]1Cc1cccc(-c2ccccc2)c1F [Example 456, N-{(2S,3S)-1-(azetidine-1-carbonyl)-2-[(2-fluoro[1,1′-biphenyl]-3-yl)methyl]pyrrolidin-3-yl}ethanesulfonamide]	104	446
CC(C)(CO)C(=O)N1CC[C@H](NS(C)(=O)=O)[C@@H]1Cc1cccc(-c2cc(F)cc(F)c2)c1F [Example 457, N-{(2S,3S)-1-(3-hydroxy-2,2-dimethylpropanoyl)-2-[(2,3′,5′-trifluoro[1,1′-biphenyl]-3-yl)methyl]pyrrolidin-3-yl}methanesulfonamide]	103	
O=C(N1CCC1)N1CC[C@H](NS(=O)(=O)CF)[C@@H]1Cc1cccc(-c2cccc(F)c2)c1 [Example 459, N-{(2S,3S)-1-(azetidine-1-carbonyl)-2-[(3′-fluoro[1,1′-biphenyl]-3-yl)methyl]pyrrolidin-3-yl}-1-fluoromethanesulfonamide]	93	
O=C(N1CCC1)N1CC[C@H](NS(=O)(=O)CF)[C@@H]1Cc1cccc(-c2ccccc2)c1 [Example 460, N-{(2S,3S)-1-(azetidine-1-carbonyl)-2-[([1,1′-biphenyl]-3-yl)methyl]pyrrolidin-3-yl}-1-fluoromethanesulfonamide]	92	
O=C(N1CCC1)N1CC[C@H](NS(=O)(=O)C2CC2)[C@@H]1Cc1cccc(-c2cccc(F)c2)c1 [Example 462, N-{(2S,3S)-1-(azetidine-1-carbonyl)-2-[(3′-fluoro[1,1′-biphenyl]-3-yl)methyl]pyrrolidin-3-yl}cyclopropanesulfonamide]	112	
O=C(N1CCC1)N1CC[C@H](NS(=O)(=O)C2CC2)[C@@H]1Cc1cccc(-c2ccccc2)c1 [Example 463, N-{(2S,3S)-1-(azetidine-1-carbonyl)-2-[([1,1′-biphenyl]-3-yl)methyl]pyrrolidin-3-yl}cyclopropanesulfonamide]	105	
O=C(N1CCC1)N1CC[C@H](NS(=O)(=O)CF)[C@@H]1Cc1cccc(-c2ccccc2)c1F [Example 466, N-{(2S,3S)-1-(azetidine-1-carbonyl)-2-[(2-fluoro[1,1′-biphenyl]-3-yl)methyl]pyrrolidin-3-yl}-1-fluoromethanesulfonamide]	108	
O=C(N1CCC1)N1CC[C@H](NS(=O)(=O)CF)[C@@H]1Cc1cccc(-c2cccc(F)c2)c1F [Example 467, N-{(2S,3S)-1-(azetidine-1-carbonyl)-2-[(2,3′-difluoro[1,1′-biphenyl]-3-yl)methyl]pyrrolidin-3-yl}-1-fluoro-methanesulfonamide]	101	
CCS(=O)(=O)N[C@H]1CCN(C(=O)C2CCC2)[C@H]1Cc1cccc(-c2ccccc2)c1 [Example 471, N-[(2S,3S)-2-[([1,1′-biphenyl]-3-yl)methyl]-(cyclobutanecarbonyl)pyrrolidin-3-yl]ethanesulfonamide]	116	
CCS(=O)(=O)N[C@H]1CCN(C(=O)N(C)OC)[C@H]1Cc1cccc(-c2cccc(F)c2)c1 [Example 474, (2S,3S)-3-[(ethanesulfonyl)amino]-2-[(3′-fluoro[1,1′-biphenyl]-3-yl)methyl]-N-methoxy-N-methylpyrro-lidine-1-carboxamide]	109	329
CN(C)C(=O)N1CC[C@H](NS(=O)(=O)N(C)C)[C@@H]1Cc1cccc(-c2ccccc2)c1F [Example 475, (2S,3S)-3-[(dimethylsulfamoyl)amino]-2-[(2-fluoro[1,1′-biphenyl]-3-yl)methyl]-N,N-dimethyl-pyrrolidine-1-carboxamide]	104	410
CN(C)C(=O)N1CC[C@H](NS(=O)(=O)N(C)C)[C@@H]1Cc1cccc(-c2cc(F)cc(F)c2)c1F [Example 476, (2S,3S)-3-[(dimethylsulfamoyl)amino]-N,N-dimethyl-2-[(2,3′,5′-trifluoro[1,1′-biphenyl]-3-yl)methyl]pyrrolidine-1-carboxamide]	103	392
CC(C)(O)C(=O)N1CC[C@H](NS(=O)(=O)C2(F)CC2)[C@@H]1Cc1cccc(-c2ccccc2)c1F [Example 479, 1-fluoro-N-[(2S,3S)-2-[(2-fluoro[1,1′-biphenyl]-3-yl)methyl]-1-(2-hydroxy-2-methylpropanoyl)pyrrolidin-3-yl] cyclopropane-1-sulfonamide]	103	
CC(C)(O)C(=O)N1CC[C@H](NS(=O)(=O)C2(F)CC2)[C@@H]1Cc1cccc(-c2cc(F)cc(F)c2)c1F [Example 480, 1-fluoro-N-{(2S,3S)-1-(2-hydroxy-2-methylpropanoyl)-2-[(2,3′,5′-trifluoro[1,1′-biphenyl]-3-yl)methyl]pyrrolidin-3-yl}cyclopropane-1-sulfonamide]	113	
CCS(=O)(=O)N[C@H]1CCN(C(=O)C(C)(C)O)[C@H]1Cc1cccc(-c2cccc(F)c2)c1F [Example 488, N-((2S,3S)-2-((2,3′-difluorobiphenyl-3-yl)methyl)-1-(2-hydroxy-2-methylpro-panoyl)pyrrolidin-3-yl)ethanesulfona-mide]	101	
